Data set [1] concerns Rattus norvegicus. Particulars: for LC50 / LD50: acute.
Data set [2] concerns Mus musculus. As to conditions: for LD50 / LC50: acute.
Data set [3] has as its system Oryctolagus sp. Particulars: for LD50: acute.
[4] abbreviates: chronic, duration: 4 months, inhalation.
Setting [5] is: chronic, duration: 693 days, oral, diet, Sprague-Dawley.
Where [6] appears, read: reproduction developmental, duration: 94 days, oral, diet, Sprague-Dawley, generation: F0.
The mark [7] stands for this setting: subchronic, duration: 13 weeks, oral, diet, Sprague-Dawley.
Where [8] appears, read: reproduction developmental, duration: 5 days, inhalation, CD1, generation: F0.
Where [9] appears, read: subchronic, duration: 13 weeks, oral, diet, Wistar.
[10] abbreviates: subchronic, duration: 13 weeks, oral, diet, ICR.

In brackets after ≈: the same amount, converted by molar mass. Several values for one entry are separate records, joined by “and”; a condition that tells them apart may be missing. Equal entries are not always repeated. Where only a bound is given, the exact number is not on record here.

Here are results for 8 compounds from EPA's ToxValDB 9.5.

Usually LOAEL stands for the lowest tested level that showed an adverse finding. Broadly, the NOAEL is the highest tested level that showed no adverse finding. What is called LD50 is the dose expected to kill half of the subjects tested. Read a low LD50 as greater toxicity.

Regarding `C1CCNCC1` [Piperidine], the LC50 in data set [1] (inhalation) is over 6970 mg/m3. The LOAEL in data set [1] (setting [4]) and in data set [3] (setting [4]) was 0.01 mg/L each time. In addition, the NOAEL in data set [1] (setting [4]) and in data set [3] (setting [4]) was 0.002 mg/L each time. Further, in data set [1] (chronic, duration: 50 weeks, oral, drinking water, Sprague-Dawley), the “NOAEL (% diet)” value turned out to be 0.09. Further, in data set [2] (oral, DD), the LD50 is 536 mg/kg and 633 mg/kg.
For `c1ccc(OP(Oc2ccccc2)Oc2ccccc2)cc1` [Triphenyl phosphite], in data set [1] (Inhalation, Sherman Wistar), the LC50 was over 6.7 µg/mL. Further, the LD50 in data set [1] (oral, gavage, Sherman Wistar) was 1590 mg/kg; in data set [3] (dermal, New Zealand), ≥ 2000 mg/kg and ≤ 5000 mg/kg. Further, the NOAEL in data set [1] (reproduction developmental, duration: 16 weeks, oral, gavage, Sprague-Dawley, generation: F0) amounted to 15 mg/kg-day; in data set [1] (reproduction developmental, duration: 16 weeks, oral, gavage, Sprague-Dawley, generation: F1) it was 15 mg/kg-day.
Turning to `O=c1n(CC2CO2)c(=O)n(CC2CO2)c(=O)n1CC1CO1` (configuration not stated) [Tris(2,3-epoxypropyl)isocyanurate], the LC50 in data set [1] (Inhalation, TIF: RAIF (SPF)) is over 300 mg/m3; in data set [1] (Inhalation, Tif.RAIF (SPF)), 650 mg/m3; in data set [1] (inhalation, particle, Wistar), over 4.16 µg/mL; in data set [2] (inhalation, particle, CD1), 2 µg/mL (≈ 6.73 µM). In addition, the LD50 in data set [1] (dermal, Sprague-Dawley) is over 3100 mg/kg; in data set [1] (dermal, semiocclusive, Sprague-Dawley), over 2000 mg/kg; in data set [1] (dermal, semiocclusive, TIF. RAIF (SPF)), over 2000 mg/kg; in data set [1] (oral, gavage, Sprague-Dawley) it was 447 mg/kg; in data set [1] (oral, gavage, TIF: RAIF (SPF)), 305 mg/kg. Also, the LOAEL in data set [1] (setting [5]) was over 100 mg/kg-day; in data set [1] (setting [6]) it was over 100 mg/kg-day; in data set [1] (setting [7]), over 100 mg/kg-day; in data set [2] (setting [8]) it was over 8 mg/m3. For the same compound, the NOAEL in data set [1] (setting [5]) was 100 mg/kg-day; in data set [1] (setting [6]) it was 30 mg/kg-day; in data set [1] (setting [7]), 30 mg/kg-day; in data set [2] (setting [8]), over 8 mg/m3.
With `NC(CO)(CO)CO` [Tromethamine], the LD50 in data set [1] (dermal) was over 1000 mg/kg; in data set [1] (injection, intravenous) it was 6000 mg/kg; in data set [1] (oral, gavage, Wistar), over 3000 mg/kg; in data set [2] (dermal), over 1000 mg/kg; in data set [2] (injection, Intraperitoneal), 3350 mg/kg; in data set [2] (injection, intravenous), 6100 mg/kg. In addition, the LD50 in data set [2] (oral, gavage, Swiss) is over 3000 mg/kg. The NOAEL in data set [1] (reproduction developmental, duration: 29 days, oral, gavage, Crl:CD(SD), generation: F0) is 1000 mg/kg-day; in data set [1] (reproduction developmental, duration: 29 days, oral, gavage, Crl:CD(SD), generation: F1) it was 1000 mg/kg-day; in data set [1] (reproduction developmental, duration: 29 days, oral, gavage, generation: F0), 1000 mg/kg-day; in data set [1] (reproduction developmental, duration: 29 days, oral, gavage, generation: F1) it was 1000 mg/kg-day; in data set [1] (short-term, duration: 20 days, injection, intravenous, Sprague-Dawley) it was 500 mg/kg-day.
Consider `C=CF` [Vinyl fluoride], for which the LOAEL in data set [1] (subchronic, duration: 90 days, inhalation, Crl:CDABR) was found to be 377 mg/m3; in data set [2] (subchronic, duration: 90 days, inhalation, Crl:CD-1 (ICR) BR), 377 mg/m3. For the same compound, the LC50 in data set [2] (inhalation) was determined as 1.3e+06 mg/m3.
Consider `CCCCC(CC)C(=O)[O-].CCCCC(CC)C(=O)[O-].[Zn+2]` (configuration not stated) [Zinc 2-ethylhexoate], for which the LC50 in data set [1] (Inhalation) was over 23.2 µg/mL. The LD50 in data set [1] (oral) was ≥ 3550 mg/kg and ≤ 3700 mg/kg; in data set [1] (oral, gavage) it was ≥ 3550 mg/kg and ≤ 3700 mg/kg; in data set [3] (dermal, occlusive), over 5000 mg/kg. The NOAEL in data set [1] (short-term, duration: 7 days, oral, gavage, Sprague-Dawley) came to 1000 mg/kg-day.
Consider `[Cl][Zn][Cl]` [Zinc chloride], for which the LOAEL in data set [1] (short-term, duration: 4 weeks, oral, drinking water, Wistar) was found to be 12 mg/kg-day; in data set [1] (setting [9]), 2880 mg/kg-day; in data set [2] (setting [10]) it was 5910 mg/kg-day. The NOAEL in data set [1] (setting [9]) is 288 mg/kg-day; in data set [2] (developmental, duration: 18 days, injection, Intraperitoneal, CF1), 12.5 mg/kg-day; in data set [2] (reproduction developmental, duration: 18 days, injection, Intraperitoneal, F, CF1), 12.5 mg/kg-day; in data set [2] (setting [10]), 591 mg/kg-day. For the same compound, the LD50 in data set [2] (oral, gavage, Swiss) was 1260 mg/kg and 605 mg/kg.
Consider `O=C([O-])c1ccc2ccccc2c1.O=C([O-])c1ccc2ccccc2c1.[Zn+2]` [Zinc naphthenate], for which the LD50 in data set [1] (oral, gavage) is over 6000 mg/kg; in data set [1] (oral, gavage, Sprague-Dawley), over 5000 mg/kg. For the same compound, the LOAEL in data set [1] (developmental, duration: 10 days, oral, gavage, Sprague-Dawley) is 938 mg/kg-day; in data set [1] (reproduction developmental, duration: 10 days, oral, gavage, F, Sprague-Dawley) it was 500 mg/kg-day and 938 mg/kg-day; in data set [3] (subchronic, duration: 90 days, dermal, semiocclusive, New Zealand), 1000 mg/kg-day.
